The values that follow come from patent US20110318768A1, “METHOD FOR DETERMINING SENSITIVITY OF TUMOR CELLS TO TYROSINE KINASE INHIBITOR AND COMPUTER PROGRAM PRODUCT” (SYSMEX CORPORATION, priority 2010, published 2011).

Common to all, as to assay: Tyrosine kinase activity inhibition rate in cell membrane fraction (Poly-Glu4-Tyr substrate)
Common to all, as to format: biochemical

In experiment [1] the test system is tyrosine kinase in cell membrane fraction of AU565. Particulars: 25 μM kinase inhibitor, 25 μM ATP. The procedure: (§1) Breast cancer cell lines shown in Table 3 were cultured in a 150 mm dish so as to be about 80% confluent, the cells were recovered using PBS and a scraper, and a cell pellet was obtained by centrifugal operation (900×g, for 5 minutes, at 4° C.). The pellet was frozen with liquid nitrogen and stored at −80° C. until preparation of the measurement sample.
(§2) 500 μl of NP40 (−) solubilized buffer (20 mM HEPES (pH 7.4)), (w/v) % glycerol, 0.2% protease inhibitor cocktail (#P8340: Sigma-Aldrich (product composition: 104 mM AEBSF, 80 μM aprotinin, 4 mM bestatin, 1.4 mM E-64, 2 mM leupeptin, 1.5 mM Pepstatin A), 50 mM NaF and 200 μM Na3VO4) was added to the cell pellet, followed by stirring for 2 seconds three times using a vortex mixer. After being allowed to stand for 10 minutes, the soluble fraction was removed by centrifugal operation (at 20000×g, for 30 minutes, at 4° C.). The obtained pellet was resuspended in 500 μl of NP40 (−) solubilized buffer, the soluble fraction was again removed by centrifugal operation (at 20000×g, for 20 minutes, at 4° C.), and the pellet was washed. The pellet was resuspended by adding 500 μl of NP40 (+) solubilized buffer (a buffer prepared by adding NP-40 to the NP40 (−) solubilized buffer at a final concentration of 1%) to the pellet, pipetting fifty times, and vortexing for 2 seconds three times. After being allowed to stand for 10 minutes, a cell membrane fraction containing a membrane protein was obtained by centrifugal operation (at 20000×g, for 40 minutes, at 4° C.). The protein concentration of the fraction was measured by DC protein assay (#500-0116 JA: Bio-Rad) and the fraction was used as a sample for kinase activity measurement. The sample was frozen with liquid nitrogen and stored at −80° C. until used for the following kinase activity measurement.
(§3) NeutrAvidin Coated Plates (HBC) (96 white plate; #15509: Pierce) were washed three times with 300 μl of TBS-T (20 mM Tris-HCl (pH 7.4)), 150 mM NaCl, 0.1% Tween), and then 100 μl of Poly-Glu4-Tyr biotin conjugate (#12440: Upstate) which had been diluted to 1 μg/ml with TBS (20 mM Tris-HCl (pH 7.4), 150 mM NaCl) was added to the wells. After shaking at 37° C. and 400 rpm for 90 minutes, the wells were washed with 300 μl of TBS-T three times and a measuring plate was obtained.
(§4) The measurement sample was diluted with a kinase buffer (20 mM HEPES (pH 7.4), 25 mM MgCl2, 1.25 mM MnCl2, 250 μM Na3VO4, 12.5 (w/v) % glycerol) so as to adjust the protein concentration to 6.25 μg/ml. The diluted measurement sample was transferred to wells of a 96 well V bottom plate. A DMSO solution (inhibitor concentration: 5 mM) containing one type of tyrosine kinase inhibitors (Inhibitors 1 to 10 shown in Table 6) was added to the wells at a ratio of 1:160 based on the diluted measurement sample solution, followed by mixing thereof. As the control, DMSO was added to the diluted measurement sample at the same ratio as the solution of the inhibitor. The used tyrosine kinase inhibitors are represented as Inhibitors 1 to 10 in Table 6.
(§5) After addition of the inhibitors, a mixed solution of the measurement sample and the inhibitor was allowed to stand at room temperature for 10 minutes. 40 μl of the mixed solution was transferred to wells of the measuring plate and 10 μl of an ATP solution (20 mM HEPES (pH 7.4), […]) as the phosphate group donor was added to the wells.
(§6) The composition of the solution in the wells is as follows: protein concentration: 5 μg/ml, 20 mM HEPES (pH 7.4), 20 mM MgCl2, 1 mM MnCl2, 200 μM Na3VO4, 10 (w/v) % glycerol, 25 μM ATP, 25 μM kinase inhibitor.
(§7) After shaking the measuring plate at 37° C. and 400 rpm for 60 minutes, the solution was removed from the measuring plate, and the wells were washed with 300 μl of TBS-T three times. 100 μl of Starting Block T20 (TBS) (#37543: Pierce) as a blocking solution was added to the wells, followed by blocking at 37° C. and 400 rpm for 10 minutes. The blocking solution was removed from the measuring plate. […]

For experiment [2], the system named is tyrosine kinase in cell membrane fraction of BT-20. The note with it: 25 μM kinase inhibitor, 25 μM ATP. The procedure: as §1, §2, §3, §4, §5, §6, §7
For experiment [3], the system named is tyrosine kinase in cell membrane fraction of BT-483. Particulars: 25 μM kinase inhibitor, 25 μM ATP. The procedure:
as §1, §2, §3, §4, §5, §6, §7

Experiment [4] relates to tyrosine kinase in cell membrane fraction of HCC1428. The note with it: 25 μM kinase inhibitor, 25 μM ATP. The procedure: as §1, §2, §3, §4, §5, §6, §7
Experiment [5] relates to tyrosine kinase in cell membrane fraction of HCC1806. Particulars: 25 μM kinase inhibitor, 25 μM ATP. The protocol: as §1, §2, §3, §4, §5, §6, §7
Experiment [6] concerns tyrosine kinase in cell membrane fraction of HCC202. The note with it: 25 μM kinase inhibitor, 25 μM ATP. The procedure:
as §1, §2, §3, §4, §5, §6, §7

Experiment [7] relates to tyrosine kinase in cell membrane fraction of HS578T. Particulars: 25 μM kinase inhibitor, 25 μM ATP. The procedure:
as §1, §2, §3, §4, §5, §6, §7

Experiment [8] relates to tyrosine kinase in cell membrane fraction of MCF7. Particulars: 25 μM kinase inhibitor, 25 μM ATP. The procedure: as §1, §2, §3, §4, §5, §6, §7
The subject of experiment [9] is tyrosine kinase in cell membrane fraction of MDA-MB-157. Particulars: 25 μM kinase inhibitor, 25 μM ATP. The procedure:
as §1, §2, §3, §4, §5, §6, §7

Experiment [10] concerns tyrosine kinase in cell membrane fraction of MDA-MB-231. Particulars: 25 μM kinase inhibitor, 25 μM ATP. The protocol:
as §1, §2, §3, §4, §5, §6, §7

Experiment [11] has as its system tyrosine kinase in cell membrane fraction of MDA-MB-415. Particulars: 25 μM kinase inhibitor, 25 μM ATP. The protocol:
as §1, §2, §3, §4, §5, §6, §7

Experiment [12] concerns tyrosine kinase in cell membrane fraction of MDA-MB-435S. The note with it: 25 μM kinase inhibitor, 25 μM ATP. The protocol: as §1, §2, §3, §4, §5, §6, §7
The subject of experiment [13] is tyrosine kinase in cell membrane fraction of MDA-MB-436. The note with it: 25 μM kinase inhibitor, 25 μM ATP. The procedure: as §1, §2, §3, §4, §5, §6, §7
Experiment [14] concerns tyrosine kinase in cell membrane fraction of MDA-MB-453. Particulars: 25 μM kinase inhibitor, 25 μM ATP. The protocol: as §1, §2, §3, §4, §5, §6, §7
Experiment [15] concerns tyrosine kinase in cell membrane fraction of SK-BR-3. Particulars: 25 μM kinase inhibitor, 25 μM ATP. The procedure:
as §1, §2, §3, §4, §5, §6, §7

The subject of experiment [16] is tyrosine kinase in cell membrane fraction of UACC812. The note with it: UACC812; 25 μM kinase inhibitor, 25 μM ATP. The procedure: as §1, §2, §3, §4, §5, §6, §7
For experiment [17], the system named is tyrosine kinase in cell membrane fraction of ZR-75-1. The note with it: 25 μM kinase inhibitor, 25 μM ATP. The procedure:
as §1, §2, §3, §4, §5, §6, §7

Take `Cc1cc(F)c(Nc2ncnc3cc(OCc4ccccc4)ccc23)cc1O.Cl` [Inhibitor 8]: the Inhibition rate in experiment [1] is reported as 11.5%; in experiment [2], 18.5%; in experiment [3] it was 27.2%; in experiment [4], 2.2%; in experiment [5], 6.4%; in [6], 11.9%. Also, the Inhibition rate in experiment [7] is given as 5.5%; in experiment [8] it was 45.7%; in experiment [9] it was 8.3%; in experiment [10], 12.8%; in experiment [11], 14.0%; in experiment [12] it was 9.8%. Besides, the Inhibition rate was 12.1% in experiment [13]; 17.7% in [14]; 25.9% in experiment [15]; 21.6% in [16]; 0.6% in experiment [17].

Regarding `CN1CCC(Nc2ncc3ncnc(Nc4ccc(F)c(Cl)c4)c3n2)CC1` [Inhibitor 2], the Inhibition rate in experiment [1] came out at 7.7%; in experiment [2], 18.9%; in [3] it was 40.3%; in [4] it was 6.8%; in experiment [5] it was 29.6%; in [6], 7.7%. In addition, the Inhibition rate in [7] was found to be 20.8%; in experiment [8], 19.9%; in experiment [9], 14.3%; in [10], 23.5%; in experiment [11] it was 25.0%; in experiment [12] it was 3.8%. In addition, the Inhibition rate in [13] was 19.0%; in experiment [14], 19.9%; in experiment [15], 18.8%; in experiment [16] it was 30.3%; in [17] it was 9.0%.

For the molecule `COc1cc2ncnc(Nc3ccc(OCc4ccccc4)cc3)c2cc1OC` [Inhibitor 3, 4-(4-benzyloxyanilino)-6,7-dimethoxyquinazoline], the Inhibition rate in [1] is reported as 25.7%; in experiment [2] it was 42.2%; in experiment [3], 68.5%; in experiment [4], 29.8%; in experiment [5] it was 56.4%; in experiment [6] it was 24.5%. Also, the Inhibition rate worked out at 40.0% in [7]; 11.3% in [8]; 38.0% in [9]; 42.0% in experiment [10]; 50.5% in experiment [11]; 37.2% in [12]. In addition, the Inhibition rate is 48.7% in [13]; 36.9% in [14]; 44.1% in [15]; 66.6% in experiment [16]; 38.5% in experiment [17].

In the case of `COc1cc2ncnc(Nc3cccc(Cl)c3)c2cc1OC` [Inhibitor 1], the Inhibition rate was 29.3% in experiment [1]; 47.2% in experiment [2]; 54.7% in experiment [3]; 19.3% in experiment [4]; 57.9% in experiment [5]; 29.7% in experiment [6]. Besides, the Inhibition rate in experiment [7] came to 53.8%; in experiment [8] it was 48.0%; in experiment [9], 45.0%; in experiment [10], 56.4%; in experiment [11] it was 41.3%; in [12], 33.4%. Moreover, the Inhibition rate amounted to 33.9% in [13]; 39.8% in [14]; 46.8% in experiment [15]; 49.3% in [16]; 20.8% in experiment [17].

For `Cc1[nH]c(/C=C2\C(=O)Nc3ccc(S(=O)(=O)N(C)c4cccc(Cl)c4)cc32)c(C)c1C(=O)N1CCN(C)CC1` [Inhibitor 9], the Inhibition rate in experiment [1] is 55.6%; in experiment [2], 51.4%; in experiment [3], 68.6%; in experiment [4] it was 47.5%; in [5], 77.3%; in [6], 69.1%. The Inhibition rate in experiment [7] turned out to be 70.6%; in experiment [8], 64.3%; in [9], 56.8%; in experiment [10], 68.0%; in [11], 56.7%; in experiment [12], 80.3%. Moreover, the Inhibition rate in experiment [13] was 74.0%; in experiment [14], 64.4%; in experiment [15] it was 66.1%; in [16], 78.1%; in experiment [17] it was 53.9%.

Turning to `COc1cc2c(cc1OC)-c1[nH]nc(Nc3cccc(F)c3)c1C2` [Inhibitor 6], the Inhibition rate in experiment [1] is 18.4%; in experiment [2] it was 28.1%; in experiment [3] it was 62.9%; in experiment [4], 30.0%; in [5], 38.8%; in [6] it was 27.1%. The Inhibition rate was determined as 49.7% in [7]; 44.4% in experiment [8]; 49.0% in [9]; 45.7% in [10]; 50.9% in [11]; 40.6% in [12]. The Inhibition rate came out at 36.1% in experiment [13]; 28.9% in experiment [14]; 45.3% in experiment [15]; 61.4% in experiment [16]; 32.5% in experiment [17].
